According to patent US20230063230A1, “NURR1 RECEPTOR MODULATORS” (priority 2019, published 2023):
pKd: −log10 of the molar value.

Key:
Nurr1 target genes = assay: Transcription of Nurr1 target genes in live zebrafish; assay type: in vivo
Text: (§1) Dopamine is broken down inside the neurons that produce it, generating oxygen free-radicals and other potentially damaging molecules (53). Among the reactive metabolites is 5,6-dihydroxyindole (DHI), a compound that undergoes spontaneous oxidation to a reactive quinone, which oligomerizes to form a polymer (neuromelanin) of unknown function. This polymer accounts for the dark appearance of nigrostriatal neurons in the normal adult CNS (54,55). Dopamine is also a central player in stress and addiction (3). It is clear that dopamine levels need to be tightly regulated in the CNS. Nurr1 controls all the genes required for dopamine synthesis, but its regulation is poorly understood as the receptor lacks both the canonical NR ligand binding pocket and the classic NR co-regulator binding surface (33). We postulated that Nurr1 might be regulated by dopamine itself, or one of its metabolites, and investigated this possibility using a combination of biophysical and structural techniques. […] Identifying stable analogs of DHI will enable more detailed studies of this intriguing biology.

[1] = target: T1, Nurr1 ligand binding domain (Homo sapiens, UniProt P43354); assay: Crystal structures of ligands covalently bound to Nurr1; settings: crystal structure, Cys566
Text: First, we used the Nurr1 ligand binding domain (LBD) and a disulfide-trapping screen to identify 50 compounds that conjugate directly to Nurr1, undergoing a disulfide exchange reaction with Cys566.

[2] = target: T2, Nurr1 LBD fused to Gal4 DBD (Homo sapiens, UniProt P43354); assay: Luciferase reporter assay; assay type: cell-based
T2 construct: expressed in transfected cells; host or cells: SK-N-BE(2)C cells (ATCC CRL-2268)
Method: In particular, direct binding to the Nurr1 LBD in vitro was measured using microscale thermophoresis (MST) and surface plasmon resonance (SPR), and efficacy in cells was measured using a lucifierase reporter assay (Nurr1 LBD fused to Gal4 DBD, measuring effect on luciferase activity) and target gene transcription assays (full length Nurr1, measuring mRNA levels of specific Nurr1 target genes). These assays pointed to a subset of compounds that bind directly to the Nurr1 LBD (by MST and/or SPR) and produce >1.5-fold changes in Nurr1 activity in cells (by Luc and/or TGT assays) (Table 1, Table 2).
Luciferase Reporter Assays. pBIND—Nurr1 is generated by cloning Nurr1 LBD (a.a. 328-598 of human Nurr1) into pBIND vector (Promega E2440). The pBIND vector also contains a Renilla luciferase gene under the control of the SV40 Promoter that can be used to normalize the transfection efficiency. The firefly luciferase reporter pG5-Luc vector (Promega E2440) contains 5 repeats of GAL4 UAS (upstream activation sequence) upstream of luciferase gene. SK—N— BE(2)C cells (ATCC CRL-2268) were transiently transfected with pBIND—Nurr1 and pG5-Luc by FuGENE HD (Promega, E2311) in 96-well-plate with the seeding density of 200,000 cells/mL. […] After 18 hours, the luminescence of Firefly and Renilla luciferase were measured by Dual Luciferase Reporter Assay System (Promega E1960).

Nurr1 LBD [3] = target: T3, Nurr1 LBD (Homo sapiens, UniProt P43354); assay: Surface plasmon resonance (SPR) assay; assay type: binding
Method: Surface Plasmon Resonance Assays. Data were collected using Biacore T200 (GE) instrument at a flow rate of 30 μL/min and at a temperature of 25° C. The running buffer was 25 mM HEPES, pH 7.4, 150 mM NaCl, 0.05% Surfactant Tween 20, and 2% DMSO. The biotinylated Nurr1 LBD was immobilized on a sensor chip SA (GE Healthcare Life Sciences; product number 29104992) or at 6000-7000 RU, or a CAP chip (GE Healthcare Life Sciences; product number 28920234) at 1500-2000 RU. Data collection was performed with kinetic titration mode. Analytes dilutions were carried out starting from DMSO stocks (10 mM). Analytes dissolved in DMSO were added to 1.02x running buffer without DMSO to yield a final DMSO concentration of 2%. When using CAP chip, surface regeneration was performed between each titration curve using 6 M guanidine.HCl+0.25 M NaOH regeneration solution followed by re-immobilization of Nurr1 (as described in the manufacturer's regeneration protocol). Data processing included double referencing (i.e., reference flow cell and buffer subtracted using a buffer injection of appropriate contact time for the given injection). Solvent correction was performed using a standard curve in a range of 1.8-2.3% DMSO.

Nurr1 LBD [4] = target: T3, Nurr1 LBD; assay: Differential scanning fluorimetry (DSF); assay type: binding
Text: as §1

[5] = tested on: Nurr1 target genes in MN9D cells; assay: MN9D target gene transcription assay; assay type: cell-based; settings: gene expression normalized to Hprt
Method: MN9D Assays. MN9Dtet-on cells were treated with 10 μM of each compound or DMSO (vehicle control) for 6 to 24 hrs. Total RNAs were isolated using Quick-RNA miniprep Plus (ZYMO Research, cat#: R^1058), and were subsequently reverse transcribed using High Capacity cDNA Reverse Transcription kit (Applied Biosystems, cat#: 4368814). SYBR Green quantitative real-time PCR analysis was performed using CFX96 Real Time system (BioRad). The following primer pairs were used for qPCR: Nurr1; 5′-[…]-3′ (SEQ ID NO:5) and 5′-[…]-3′ (SEQ ID NO:6), Pitx3; 5′-GCAACTGGCCGCCCAAGG-3′ (SEQ ID NO:7) and 5′-AGGCCCCACGTTGACCGA-3′ (SEQ ID NO:8), VMAT2; 5′-[…]-3′ (SEQ ID NO:9) and 5′-[…]-3′ (SEQ ID NO:10), TH; 5′-[…]-3′ (SEQ ID NO:11) and 5′-[…]-3′ (SEQ ID NO:12), HPRT; 5′-TGGGAGGCCATCACATTGT-3′ (SEQ ID NO:13) and 5′-[…]-3′ (SEQ ID NO:14). The levels of gene expression were normalized to the level of housekeeping gene (HPRT) expression.

[6] = target: T1, Nurr1 ligand binding domain; assay: Microscale thermophoresis (MST) binding assay; settings: measured by microscale thermophoresis
Method: Microscale thermophoresis (MST) assays. Data were collected using the Nanotemper Monolith NT.115 at a temperature of 25° C. The MST buffer used in each experiment was 25 mM HEPES (Sigma Aldrich), pH 7.4, 150 mM NaCl (Alfa Aesar), and 0.02% Pluronic (Sigma Aldrich). All samples were prepared using Protein LoBind tubes or deepwell plates (Eppendorf). The His-tagged Nurr1 was labeled with RED-tris-NTA dye (NT-647) according to the kit's protocol (Nanotemper). Dilutions of each ligand were carried out starting from DMSO stocks of 10 mM in DMSO. The analyte solutions in DMSO were added to aliquots of MST buffer to yield a DMSO concentration of 4%.
Two types of experiments were performed: endpoint and binding affinity assays. For the endpoint assays, equal amounts of the ligand solution and labeled Nurr1 were mixed to yield the final concentrations: 50 nM Nurr1, 25 nM RED-tris-NTA dye, 2% DMSO, and either 25 μM or 100 μM of the desired ligand in the MST buffer. […]
The Monolith NT.115 settings for all samples were 40% excitation power and 40% MST power. The initial fluorescence was recorded for 3 seconds and the thermophoresis fluorescence response was recorded for 20 seconds. […] Screening Analysis software (Nanotemper) was used to normalize the fluorescent response signals to the sample's initial fluorescence. […]

Nurr1 [7] = target: T4, Nurr1 (Homo sapiens, UniProt P43354); assay: Binding SPR
Target sequence in this assay (P43354 360-595 limits assumed): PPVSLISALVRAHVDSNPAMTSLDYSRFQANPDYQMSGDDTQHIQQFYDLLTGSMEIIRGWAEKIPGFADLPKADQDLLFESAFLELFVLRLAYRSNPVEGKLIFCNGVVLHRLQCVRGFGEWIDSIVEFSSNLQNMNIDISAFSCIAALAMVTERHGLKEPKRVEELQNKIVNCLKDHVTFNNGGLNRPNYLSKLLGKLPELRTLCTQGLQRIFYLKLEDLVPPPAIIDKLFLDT

Nurr1 [8] = target: T4, Nurr1; assay: Binding MST
Target sequence in this assay (P43354 360-595 limits assumed): as above

TH in SHSY5Y = assay: qPCR SHSY5Y TH; assay type: cell-based; settings: Homo sapiens, SH-SY5Y, cpds tested at 10 μM
Vmat2 in MN9D = assay: cells; assay type: cell-based; settings: cpds tested at 10 μM, analogs of compound 87, read-out: qPCR MN9D Vmat2
Nurr1 in MN9D = assay: qPCR MN9D Nurr1; assay type: cell-based; settings: cpds tested at 10 μM, analogs of compound 87
Nurr1 [9] = target: T4, Nurr1; assay: Luciferase cellular assay; assay type: cell-based; set-up: expressed in transfected cells; host or cells: SK-N-BE(2)C cells (ATCC CRL-2268); settings: cpds tested at 10 μM; analogs of compound 87
Target sequence in this assay (P43354 328-598): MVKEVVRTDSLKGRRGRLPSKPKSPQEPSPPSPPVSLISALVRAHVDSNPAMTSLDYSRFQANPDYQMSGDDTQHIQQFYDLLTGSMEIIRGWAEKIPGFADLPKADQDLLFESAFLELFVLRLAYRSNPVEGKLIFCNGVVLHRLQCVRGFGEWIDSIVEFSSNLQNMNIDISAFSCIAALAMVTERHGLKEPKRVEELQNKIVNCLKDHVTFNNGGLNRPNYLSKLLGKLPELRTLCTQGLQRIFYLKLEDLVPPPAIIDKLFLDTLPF

Pitx3 in MN9D = assay: qPCR MN9D Pitx3; assay type: cell-based; settings: cpds tested at 10 μM, analogs of compound 87

T1 sequence (P43354 360-595 limits assumed): as the sequence (P43354 360-595 limits assumed) above
T3 sequence (P43354 360-595 limits assumed): as above
T2 sequence (P43354 328-598): as the sequence (P43354 328-598) above

Row | Structure (SMILES) | fold induction at 10 µM (TH in SHSY5Y) | Binding SPR (Nurr1 [7]; analogs of compound 87) | fold induction at 10 µM (Vmat2 in MN9D) | Binding MST (Nurr1 [8]; analogs of compound 87) | Luciferase (Nurr1 [9]) | further results
1 | Oc1cc2cc[nH]c2cc1O [DHI, 5,6-dihydroxyindole] | – | – | – | – | – | Expression of VMAT (Nurr1 target genes; acute exposure (6 h, data not shown)): drives the expression; Transcription of Nurr1 target genes in live zebrafish (Nurr1 target genes; in vivo): driving transcription of Nurr1 target genes; Expression of TH (Nurr1 target genes; longer exposure (24 h)): drives the expression; Covalent binding to Nurr1 [1]: reversible covalent adduct with Cys566; Nurr1 activity in the reporter assay [2]: stimulating Nurr1 activity; Off-rate (Nurr1 LBD [3]): very slow off-rate; pKd (Nurr1 LBD [3]; read-out: Kd for binding to Nurr1): 5.30; Stabilization of the Nurr1 LBD, melting temperature (Nurr1 LBD [4]): increasing the melting temperature by one degree
2 | O=C(COc1ccc(Cl)c(Cl)c1)NCCS [SP 85, 2-(3,4-dichlorophenoxy)-N-(2-mercaptoethyl)acetamide] | – | – | – | – | – | Transcription of Nurr1 target genes in MN9D cells [5]: stimulate the transcription of Nurr1 target genes; Binding to the Nurr1 ligand binding domain, affinity [6]: high nanomolar affinity; Binding SPR (Nurr1 [7]; analogs of compound 85): +; Binding MST (Nurr1 [8]; analogs of compound 85): +++
3 | CC(C)(NC(=O)c1cc(Cl)cc(Cl)c1)c1cn(CCS)nn1 [SP 87, 3,5-dichloro-N-(2-(1-(2-mercaptoethyl)-1H-1,2,3-triazol-4-yl)propan-2-yl)benzamide] | > 1.5 | + | > 4 | +++ | – | Transcription of Nurr1 target genes in MN9D cells [5]: stimulate the transcription of Nurr1 target genes; Binding to the Nurr1 ligand binding domain, affinity [6]: high nanomolar affinity
4 | CC(C)(NC(=O)c1cc(Cl)cc(Cl)c1)c1cnn(CCS)c1 [SP 153, 3,5-dichloro-N-(2-(1-(2-mercaptoethyl)-1H-pyrazol-4-yl)propan-2-yl)benzamide] | > 4 | +++ | > 1.5 | +++ | – | fold induction at 10 µM (Nurr1 in MN9D): > 4
5 | CC(C)(NC(=O)c1cc(Br)cc(Br)c1)c1cn(CCS)nn1 [SP 156, 3,5-dibromo-N-(2-(1-(2-mercaptoethyl)-1H-1,2,3-triazol-4-yl)propan-2-yl)benzamide] | > 4 | ++ | – | ++ | +++ (+++ =>4−fold) | –
6 | CC(C)(NC(=O)c1ccc(Cl)c(Cl)c1)c1cn(CCS)nn1 [SP 157, 3,4-dichloro-N-(2-(1-(2-mercaptoethyl)-1H-1,2,3-triazol-4-yl)propan-2-yl)benzamide] | – | + | > 4 | +++ | +++ (+++ =>4−fold) | –
7 | CC(C)C(=O)SCCn1cc(C(C)(C)NC(=O)c2cc(Cl)cc(Cl)c2)nn1 [SP 163, S-2-(4-(2-(3,5-dichlorobenzamido)propan-2-yl)-1H-1,2,3-triazol-1-yl)ethyl 2-methylpropanethioate] | > 1.5 | – | > 4 | – | – | –
8 | CC(=O)SCCn1cc(C(C)(C)NC(=O)c2ccc(Cl)c(Cl)c2)nn1 [SP 171, S-2-(4-(2-(3,4-dichlorobenzamido)propan-2-yl)-1H-1,2,3-triazol-1-yl)ethyl ethanethioate] | – | – | – | – | – | fold induction at 10 µM (Pitx3 in MN9D): > 4
9 | CC(=O)SCCn1cc(C(C)(C)NC(=O)c2cc(Br)cc(Br)c2)nn1 [SP 173, S-2-(4-(2-(3,5-dibromobenzamido)propan-2-yl)-1H-1,2,3-triazol-1-yl)ethyl ethanethioate] | > 1.5 | – | – | – | +++ (+++ =>4−fold) | –
10 | CC(=O)SCCn1cc(C(C)(C)NC(=O)c2cc(Cl)cc(N3CCN(C)CC3)c2)nn1 [SP 186, S-2-(4-(2-(3-chloro-5-(4-methylpiperazin-1-yl)benzamido)propan-2-yl)-1H-1,2,3-triazol-1-yl)ethyl ethanethioate] | – | – | > 1.5 | – | ++ (++ => 1.5-fold) | –
11 | CC(=O)SCCn1cc(C(C)(C)NC(=O)c2ccc3ocnc3c2)nn1 [SP 195, S-2-(4-(2-(benzo[d]oxazole-5-carboxamido)propan-2-yl)-1H-1,2,3-triazol-1-yl)ethyl ethanethioate] | – | – | – | – | – | fold induction at 10 µM (Nurr1 in MN9D): > 1.5; fold induction at 10 µM (Pitx3 in MN9D): > 1.5
12 | NCCc1ccc(O)c(O)c1 [dopamine] | – | – | – | – | – | Stabilization of the Nurr1 LBD, melting temperature (Nurr1 LBD [4]): not
